One data set deals with IL-1β. The data set can be described thus: LPS-induced IL-1β in cultured BMDM. It is filed as cell-based. The conditions noted are these: Mus musculus, corticosteroid overnight, LPS 10 ng/ml 3 h. An excerpt: (§1) The immunosuppressive activity of corticosteroids is in part due to their inhibition of NF-κB-induced cytokines including TNF-α, IL-6, and IL-12. Furthermore, expression of some inflammatory-mediated proteins such as STAT1 is mediated via GREs, and not the NF-κB pathway. We therefore expanded murine bone marrow-derived macrophages (BMDM) in vitro, and after 5 days of culture tested the relative efficacy of different corticosteroids to prevent LPS-induced cytokine secretion.
(§2) BMDM mouse bone marrow derived macrophage (mBMDM) cultures were generated from the femur and tibia from two 7–11-week-old C57BL/6 mice. Briefly, bone marrow cells were carefully flushed out, suspended in ice-cold PBS, and spun down. After the supernatant was removed, the pelleted cells were resuspended in 2 ml (ammonium-Chloride-Potassium) ACK lysis buffer (Thermo Fisher, Cat# A1049201) and incubated for 3–4 min, followed by 14 ml ice-cold PBS, and then spun down. The pelleted cells were resuspended in 43 ml complete media [Roswell Park Memorial Institute (RPMI 1640), Gibco, Cat# 11875-093; 10% heat-inactivated fetal bovine serum (HiFBS), HyClone, Cat# SH30406.02; 1% 2 mM L-glutamine; 1% penicillin-streptomycin, Sigma, Cat# P4333-100ML; 1% MEM NEAA, Gibco, Cat# 11140-050; 1% Na Pyruvate, Gibco, Cat# 11360-070; 55 μM 2-Mercaptoethanol, Gibco, Cat#21985-023]. A total of 25 ng/ml M-CSF was added to the culture. Cells were dispensed as 200 μl per well into a 96-well tissue culture plate and incubated at 37°C, 5% CO2 for 4 days. On Day 5, media were removed and 100 μl fresh complete media containing M-CSF were added. Corticosteroids were added and cells incubated at 37°C and 5% CO2 overnight. Untreated cells were incubated with media. On Day 6, 10 ng/ml of lipopolysaccharide (LPS) was added and incubated at 37°C and 5% CO2 for 3 h followed by removal of cell media for cytokine analysis. Cytokines were measured using a Meso Scale Discovery (MSD), V-PLEX kit (V-PLEX Cat# K-15048D, www.mesoscale.com).

Data set [1] relates to mineralocorticoid receptor. Set-up: method as in PMID 30745312. The following applies: cited from earlier work.
The conditions of data set [2]: cited from earlier work.
The test system of another data set is IFN-γ. The data set can be described thus: LPS-induced IFN-γ in cultured BMDM. It counts as cell-based. The following applies: Mus musculus, corticosteroid overnight, LPS 10 ng/ml 3 h.
Excerpt: as §1, §2

The next data set relates to human P-gp (MDR1). The data set can be described thus: MDR1-MDCK permeability / P-gp efflux assay. The conditions noted are these: for Differences between ratios: MDR1-MDCK minus MDCK efflux ratio; for brain penetration classification: 1 and 10 μM, from Papp (A-to-B) and efflux ratio. The procedure: (§3) To measure transport by P-gp, Madin-Darby canine kidney (MDCK) cells that had been transfected with the human P-gp (MDR1) gene were plated in a Transwell plate and cultured until polarized. MDCK cells that are not transfected with human P-gp were used as a control. Compounds were added to either the apical or the basolateral side of the cells, and transport across the membrane was measured.
(§4) Testing for permeability and MDR1 substrate assessment was done in MDCK cells transfected to overexpress human MDR1 gene that encodes efflux transporter protein (P-gp). […] Briefly, cells were maintained in Dulbecco’s modified Eagle medium (DMEM) with 10% fetal bovine serum and 1% penicillin/streptomycin in a humidified incubator at 37°C with 5% CO2. The study was performed by Absorption Systems (now Pharmaron; Exton, PA). The MDR1-MDCK and MDCK control cell lines were seeded into 12-well plates for 7 days. Integrity of monolayer tight junctions was monitored preincubation by transepithelial electrical resistance (TEER) measurement. […] The samples were withdrawn at t = 0 and 60 min from the receiver and donor compartments. Compound levels were measured by LC/MS–MS. Additionally, post-assay, cell monolayer integrity was checked with Lucifer Yellow permeability measurement. Transport assay low- and high-permeability control compounds were run in parallel for assay validation. Papp values were calculated considering compound concentrations across the monolayer and cell surface area. Efflux ratios were calculated based on Papp B > A over Papp A > B. The difference between the MDR1-MDCK and the MDCK cell efflux ratios was also calculated. […] Compounds were classified by Absorption Systems/Pharmaron as follows: […]

The test system of another data set is P-gp (MDR1). Nature of the data set: MDR1-MDCK permeability / P-gp efflux assay. The conditions noted are these: MDCK-MDR1, pH 7.4. The procedure:
as §3, §4

A further data set concerns B10-mdx mice. Nature of the data set: Diaphragm hydroxyproline assay (Study 2). It counts as in vivo, mouse. The following applies: 4 months. The procedure:
To determine muscle damage in B10-mdx mice and to evaluate the effects of the three corticosteroids on muscle, we used the hydroxyproline assay to measure the collagen content in diaphragm muscle tissue, a measure of muscle damage and fibrosis. […] Levels were reduced in mice treated with any of the three corticosteroids (Fig. 6d).
Diaphragm muscles were dissected, weighed, and stored at −80°. Tissues were cut to avoid the tendon(s), and 10 ± 1 mg of tissue was homogenized through sonication. Water and hydrochloric acid (12 M) content were normalized prior to hydrolysis at 120° for 3 h in pressure-tight polypropylene vials. After boiling, the hydrolysates were centrifuged at 10 000 × g for 3 min, and 6-μl triplicates of the hydrolysate were added to clear 96-well plates for evaporation in a 60°C oven overnight. The following day, a hydroxyproline kit (Sigma, cat #MAK008) was used to determine the hydroxyproline content. In each sample and standard well, 100 μl Chloramine T/Oxidation buffer mixture was added, incubated for 5 min at room temperature, and followed with 100 μl of perchloric acid diluted DMAB concentrate. The plate was sealed and incubated in a 60°C oven for 90 min. The 96-well plates were read using a BioTek Epoch 2 Spectrophotometer at an absorbance of 560 nm.

The subject of another data set is IL-12. The data set can be described thus: LPS-induced IL-12 in cultured BMDM. The conditions noted are these: Mus musculus, corticosteroid overnight, LPS 10 ng/ml 3 h. It is filed as cell-based.
Excerpt: as §1, §2

The mark [3] stands for this setting: human, 2 mg/kg, ref Conklin et al., Pharmacol Res. 2018.
Where [4] appears, read: human, 6 mg/kg, ref Conklin et al., Pharmacol Res. 2018.

SMILES strings stand for the structures. Values joined by “and” are separate entries in the source; they are usually repeats but may differ in a detail not shown here. Equal values may be shown once. Read-outs that look alike come from different tables or passages of the source.

We go through three compounds from paper PMC10800023 (Human Molecular Genetics, 2023).

One may read the EC50 as the concentration at which the effect is half-maximal. Higher therefore signals a less potent agent. By Cmax is commonly meant the maximum level reached in the sampled fluid or tissue. The term Papp A→B denotes the apparent permeability from the apical to the basolateral side of a cell layer. Higher therefore signals ready permeation. In general, Papp B→A refers to how fast a substance crosses the layer from the basolateral side. By Papp is commonly meant the rate of passage across a membrane or cell layer, normalised by area and donor concentration. Lower therefore signals slow passage. A word on the efflux ratio: it is a quotient of directional permeabilities that is used to spot active efflux. `CC(=O)OCC(=O)[C@@]12N=C(C)O[C@@H]1C[C@H]1[C@@H]3CCC4=CC(=O)C=C[C@]4(C)[C@H]3[C@@H](O)C[C@@]12C` [Deflazacort] showed a half-maximal effective concentration (EC50) in the data set with IL-1β of 1.3 nM. The “effect on mineralocorticoid receptor signaling” value (shortened to “effect”) in data set [1] is listed as “no effect”. Besides, the Cmax in data set [2] (human, 0.9 mg/kg, ref FDA 208684,208685Orig1s000ClinPharmR.pdf) was 329 ng/mL. The “AUC (Day 1)” value in data set [2] (human, 0.9 mg/kg, ref FDA 208684,208685Orig1s000ClinPharmR.pdf, listed as Emflaza) was 567 ng·h/mL and 630 ng·h/mL. Further, the midpoint of the response in the data set on IFN-γ, the EC50, lay at 0.29 nM. Further, in the data set on human P-gp (MDR1) (1 μM), the “Basolateral to Apical MDR1-MDCK” value was 62.60 10 ^ −6 cm/s and the Differences between ratios came to 59. In addition, in the data set with human P-gp (MDR1) (10 μM), the “Apical to Basolateral MDR1-MDCK” value was 1.07 10 ^ −6 cm/s and the Differences between ratios is 57. In addition, the brain penetration classification result in the data set with human P-gp (MDR1) was “low”. In the data set with human P-gp (MDR1) (dog, MDCK-MDR1, pH 7.4), the apparent permeability from apical to basolateral (Papp A→B) at 60 min, 1 μM was determined as 1.04 ×10⁻⁶ cm/s and the Papp B→A at 60 min, 10 μM is 62.6 ×10⁻⁶ cm/s. In the data set on P-gp (MDR1), the apparent permeability (Papp) at 60 min was < 3 ×10⁻⁶ cm/s; the efflux ratio at 60 min, 1 μM amounted to 60.2; the efflux ratio at 60 min, 10 μM is 58.4. Further, the “diaphragm hydroxyproline (fibrosis)” value with B10-mdx mice (5 and 15 mg/kg) was “reduced fibrosis”. The same compound returned an EC50 with IL-12 of 3.6 nM.
For the compound `C[C@]12C=CC(=O)C=C1CC[C@@H]1[C@@H]2[C@@H](O)C[C@@]2(C)[C@H]1CC[C@]2(O)C(=O)CO` [Prednisolone], the EC50 amounted to 3 nM in the data set with IL-1β, 0.5 nM in the data set with IFN-γ and 8.5 nM with IL-12. For the same compound, the “effect” value in data set [1] is reported as “agonist”. Besides, the “AUC (Day 1)” value in data set [2] (human adults, 0.35 mg/kg (20 mg/57 kg), AUC0-12, average of two formulations, ref Bashar et al., Dose Response 2018) was 3301 ng·h/mL. For the same compound, the peak concentration (Cmax) in data set [2] (human adults, 0.35 mg/kg (20 mg/57 kg), average of two formulations, ref Bashar et al., Dose Response 2018) is given as 659 ng/mL. Moreover, in the data set with B10-mdx mice (5 mg/kg), the “diaphragm hydroxyproline (fibrosis)” value is “reduced fibrosis”.
The compound `C[C@@H]1C[C@H]2[C@@H]3CCC4=CC(=O)C=C[C@]4(C)C3=CC[C@]2(C)[C@@]1(O)C(=O)CO` [Vamorolone] yielded an EC50 in the data set with IL-1β of 32 nM. In addition, the “effect” value in data set [1] was “antagonist”. In data set [2] (setting [3]), the “AUC (Day 1)” value was 761 ng·h/mL and the peak concentration (Cmax) was 199 ng/mL. Besides, in data set [2] (setting [4]), the “AUC (Day 1)” value is 3279 ng·h/mL and the peak concentration (Cmax) is given as 856 ng/mL. This compound also registered an EC50 with IFN-γ of 0.8 nM. In addition, the Differences between ratios with human P-gp (MDR1) (1 μM) turned out to be 6. Moreover, in the data set with human P-gp (MDR1) (10 μM), the “Apical to Basolateral MDR1-MDCK” value is 8.73 10 ^ −6 cm/s and the Differences between ratios stood at 6. Moreover, in the data set on human P-gp (MDR1), the brain penetration classification result is given as “moderate”. In the data set on human P-gp (MDR1) (dog, MDCK-MDR1, pH 7.4), the Papp A→B at 60 min, 1 μM was found to be 7.99 ×10⁻⁶ cm/s; the Papp B→A at 60 min, 1 μM is 54.7 ×10⁻⁶ cm/s; the basolateral-to-apical permeability (Papp B→A) at 60 min, 10 μM stood at 56.1 ×10⁻⁶ cm/s. In addition, in the data set with P-gp (MDR1), the Papp at 60 min is > 3 ×10⁻⁶ cm/s; the efflux ratio at 60 min, 1 μM worked out at 6.84; the efflux ratio at 60 min, 10 μM was found to be 6.42. In the data set with B10-mdx mice (45 mg/kg), the “diaphragm hydroxyproline (fibrosis)” value is “did not reach significance”. The “diaphragm hydroxyproline (fibrosis)” value with B10-mdx mice (15 and 30 mg/kg) was “reduced fibrosis”. In addition, in the data set on IL-12, the concentration giving a half-maximal response (EC50) was 30 nM.
